Assays:
[1] = tested on: phospho-c-RAF and phospho-ERK1/2 in MCF-7 cells; assay: Western blot of RAS-MAPK pathway, MCF-7; format: cell-based, human; conditions: MCF-7, 10-250 μM RBP 6 h then 50 ng/ml EGF 10 min
Method: (§1) Protein expression was confirmed via Western blot analysis. Briefly, 9 × 10^5 cells were cultured in 100-mm-diameter dishes. When they reached 90% confluence, the cells were starved for 18 h in serum-free medium. […] At the end of the culture period, the cells were lysed for 20 min in cold lysis buffer on ice. Protein concentration was measured using bicinchoninic acid protein assays (Thermo Fisher Scientific, MA, USA). Equal aliquots of protein (40 μg) were boiled for 7 min in 5× sample buffer and separated by 10% SDS–PAGE. Proteins were transferred onto nitrocellulose membranes, followed by washing with Tris-buffered saline (TBS) containing 0.1% Tween 20 (TBST). The membranes were then blocked for 60 min at room temperature with 5% skim milk in TBST. Following the washing procedure, the membranes were incubated with primary antibodies (RAS, phospho-ERK1/2, ERK1/2, phospho-RAF proto-oncogene serine/threonine-protein kinase [phospho-c-RAF; S338], c-RAF [Cell Signaling Technology, Beverly, MA, USA], and GAPDH [Santa Cruz Biotechnology, Inc., Santa Cruz, CA, USA]) diluted in TBST containing 5% skim milk at 4 °C for 18 h. […] The membranes were subsequently washed 3 more times, and protein bands were detected using chemiluminescence reagents (West Pico PLUS, Thermo Fisher Scientific, USA).

HT-29 cells = assay: Cell viability, CCK-8 assay, HT-29; format: cell-based, human; conditions: HT-29 (KRAS wild-type), CCK-8, 0-1,000 μM RBP, 24, 48 or 72 h, triplicate
Method: (§2) The viability of the cells was determined via Cell Counting Kit-8 (CCK-8; Dojindo Laboratories, Kumamoto, Japan) assay. The cells were plated in 96-well culture plates at a density of 5 × 10^3 cells per well and incubated for 24 h at 37 °C in a humidified incubator with 5% CO2. […] After incubation, the medium was replaced with fresh medium containing 10% (v/v) CCK-8 reagent, and the cells were incubated for 2 h. Absorbance was measured at 450 nm using a microplate reader. All experiments were performed in triplicate.

MDA-MB-231 cells = assay: Scratch wound migration assay; format: cell-based, human; conditions: MDA-MB-231, serum-starved monolayer, 6-72 h
Method: To assess MDA-MB-231 cell migration, 2 methods were employed: a Transwell migration assay and a scratch assay. For the Transwell migration assay, 24-well Transwell plates (8-μm pore size; Costar, Corning Incorporated, Corning, NY, USA) were used to evaluate the invasive potential of the cells. […] Following a 6-h incubation period, nonmigratory cells were carefully removed from the upper surface of the membrane using a PBS-soaked cotton swab. The cells that successfully migrated through the membrane were fixed in methanol for 10 min, and Giemsa staining was used to visualize them. Images were captured using an Olympus DP72 camera at ×100 magnification, and the number of migrated cells in the treated samples was compared with that in the control samples. For the scratch assay, MDA-MB-231 cells (1 × 10^6 cells) were cultured in 6-well plates until they reached confluence. The cells were rinsed with PBS and incubated overnight in serum-free medium. A sterile 200-μl plastic pipette tip was used to create a linear scratch in the center of the monolayer. […] Images were taken immediately after scratching and again after 6, 24, 48, and 72 h of incubation using an Olympus CKX41 inverted microscope at ×20 magnification to evaluate the distance the cells migrated from the wound edge.

[2] = tested on: MDA-MB-231 cell-derived tumors; assay: Mouse xenograft tumor model; format: in vivo; conditions: BALB/c nude mice, MDA-MB-231 xenograft
Method: Female BALB/c nude mice (aged 5 to 6 weeks) were utilized in these studies to establish breast cancer xenograft models. These mice were obtained from Orient Bio, Inc. (Seongnam, Republic of Korea) and maintained in the Division of Laboratory Animal Resources animal facility throughout the experimental period. The selection, management, and experimental protocols, as well as the preparation of the animals, were conducted in accordance with the guidelines approved by the Institutional Animal Care and Use Committee of Seoul National University. All experiments adhered to the animal protocol approved by the Institutional Animal Care and Use Committee at Seoul National University (protocol number: SNU-171026-1-5). MDA-MB-231 cells were cultured until they reached 80% to 90% confluency and then harvested and prepared as suspensions (3 × 10^6 cells/100 μl in PBS) mixed with Matrigel. These cell suspensions were injected into the right hind flanks of nude mice (n = 8). […] The control mice received PBS injections. The mice were weighed, and their tumor volumes were measured 3 times per week using Vernier calipers, starting on the first day of treatment. The tumor volume was calculated using the formula tumor volume = A × B^2 × 0.52, where A represents the longest tumor diameter and B represents the shortest diameter. After 6 weeks, the mice were euthanized in a sealed chamber with CO2 gas for 5 to 10 min, and their solid tumors were harvested and fixed in 4% paraformaldehyde for subsequent analysis via immunohistochemistry (IHC).
The tissues were fixed in 4% formalin before being embedded in paraffin. Sections with a thickness of 4 μm were deparaffinized with xylene and then rehydrated with a graded series of ethanol solutions, ranging from 95% to 100%. […] Antibody binding was detected through incubation with EnVision FLEX/horseradish peroxidase (Dako) for 30 min. […] The intensity and distribution of Ki-67-specific immunostaining were assessed using a Leica DM6B digital light fluorescence microscope following hematoxylin counterstaining.

HCT-116 cells = assay: Cell viability, CCK-8 assay, HCT-116; format: cell-based, human; conditions: HCT-116 (KRAS G13D), CCK-8, 0-1,000 μM RBP, 24, 48 or 72 h, triplicate
Method: as §2

[3] = tested on: phospho-c-RAF and phospho-ERK1/2 in HT-29 cells; assay: Western blot of RAS-MAPK pathway, HT-29; format: cell-based, human; conditions: HT-29, 10-250 μM RBP 6 h then 50 ng/ml EGF 10 min
Method: as §1

[4] = tested on: phospho-c-RAF and phospho-ERK1/2 in HCT-116 cells; assay: Western blot of RAS-MAPK pathway, HCT-116; format: cell-based, human; conditions: HCT-116, 10-250 μM RBP 6 h then 50 ng/ml EGF 10 min
Method: as §1

[5] = 10 mg/kg intraperitoneal, 6 weeks

## C[C@@H](O)[C@H](NC(=O)[C@H](CO)NC(=O)[C@H](CS)NC(=O)[C@H](CCCCN)NC(=O)CN)C(=O)N[C@@H](CCCNC(=N)N)C(=O)NCC(=O)N[C@@H](CCCNC(=N)N)C(=O)N[C@@H](CCCCN)C(=O)N[C@@H](CS)C(=O)N[C@@H](CS)C(=O)N[C@@H](CCCNC(=N)N)C(=O)N[C@@H](CCCNC(=N)N)C(=O)N[C@@H](CCCCN)C(=O)N[C@@H](CCCCN)C(N)=O [RBP]
[1]
  RAF activation: did not inhibit
[1]; n = 3
  ERK1/2 phosphorylation: did not inhibit
HT-29 cells
  decrease in the percentage of viable cells: not significant
MDA-MB-231 cells
  tumor cell migration in scratch assay: significantly inhibited
[2]; 10 mg/kg intraperitoneal 3 times per week for 6 weeks, n = 8, P < 0.05
  tumor growth vs not-treated group: significant reduction
[2]; [5]
  Ki-67 expression in tumor sections (IHC): decreased Ki-67 expression
  immune cell infiltration in tumors (H&E): increased immune cell infiltration
HCT-116 cells
  percentage of viable cells: reduced the percentage of viable KRAS G13D mutant cells in a dose-dependent manner
[3]
  RAF activation: did not inhibit
[3]; n = 3
  ERK1/2 phosphorylation: did not inhibit
[4]
  activation of RAF (phospho-c-RAF): effectively inhibited
[4]; p-ERK/ERK, n = 3
  phosphorylation of ERK1/2: effectively inhibited
